Test results reported in US9440978B2, “Imidazolo-, oxazolo-, and thiazolopyrimidine modulators of TRPV1” (Janssen Pharmaceutica NV, priority 2007, dated 2016).
Where a name gives a salt, the structure may show the parent alone.

Key:
human TRPV1 = target: T1, human TRPV1 (Homo sapiens, UniProt Q8NER1); assay: Block of capsaicin-induced Ca2+ influx, human assay (hTRPV1/HEK293, FLIPR); assay type: cell-based; settings: HEK293 cells transfected with human TRPV1; 150 nM capsaicin challenge; mean; > value = solubility limit in assay medium
T1 construct: expressed in transfected cells; host or cells: HEK293
T1 sequence (Q8NER1 whole entry): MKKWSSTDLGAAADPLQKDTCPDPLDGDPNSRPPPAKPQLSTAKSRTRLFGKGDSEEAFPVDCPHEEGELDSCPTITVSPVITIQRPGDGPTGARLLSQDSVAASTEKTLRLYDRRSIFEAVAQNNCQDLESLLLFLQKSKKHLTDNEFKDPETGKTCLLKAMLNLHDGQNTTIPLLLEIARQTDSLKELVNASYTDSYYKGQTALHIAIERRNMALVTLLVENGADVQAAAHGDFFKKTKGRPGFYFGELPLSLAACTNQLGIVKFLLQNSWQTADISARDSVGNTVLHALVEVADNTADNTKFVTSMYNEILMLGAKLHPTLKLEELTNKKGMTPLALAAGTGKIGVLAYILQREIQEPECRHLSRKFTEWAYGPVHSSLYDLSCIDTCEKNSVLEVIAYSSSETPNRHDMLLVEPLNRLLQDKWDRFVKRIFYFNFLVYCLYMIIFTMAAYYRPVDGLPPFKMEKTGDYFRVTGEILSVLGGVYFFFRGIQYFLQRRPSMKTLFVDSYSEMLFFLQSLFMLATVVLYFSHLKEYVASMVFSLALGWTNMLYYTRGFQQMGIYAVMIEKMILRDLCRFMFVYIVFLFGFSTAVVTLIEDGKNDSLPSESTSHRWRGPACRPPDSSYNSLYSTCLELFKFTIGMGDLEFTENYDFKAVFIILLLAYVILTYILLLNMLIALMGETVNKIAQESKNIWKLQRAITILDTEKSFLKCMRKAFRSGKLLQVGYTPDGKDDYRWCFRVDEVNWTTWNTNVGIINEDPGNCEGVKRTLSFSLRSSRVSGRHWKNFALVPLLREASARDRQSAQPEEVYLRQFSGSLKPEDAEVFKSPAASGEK
Description: (§1) HEK293 cells were transfected with human TRPV1 cloned in pcDNA3.1zeo(+) using the Effectene non-liposomal lipid based transfection kit (Qiagen) (hTRPV1/HEK293). hTRPV1/HEK293 cells were routinely grown as monolayers under selection in zeocin (200 μg/mL; Invitrogen) in Dulbecco's Modified Eagle Medium (DMEM, Gibco BRL) supplemented with 10% fetal bovine serum, and penicillin/streptomycin (50 units/mL) in 5% CO2 at 37° C. Cells were passaged frequently, every 3-5 days, to avoid overgrowth, depletion of essential medium components, or acidic medium exposure. Cells were passaged using a brief wash in 0.05% trypsin with 1 mM EDTA, followed by dissociation in divalent-free phosphate-buffered saline (Hyclone #SH30028.02). […] The assay buffer was composed of 130 mM NaCl, 2 mM KCl, 2 mM MgCl2, 10 mM HEPES, 5 mM glucose, and either 2 mM or 20 μM CaCl2. On the day of the experiment, the culture medium was replaced with 2 mM calcium assay buffer using an automated plate washer (ELx405; Biotek, VT). […] After loading the cells, the dye solution was replaced with 50 μL/well of 20 μM calcium assay buffer using the ELx405 plate washer. Test compounds (50 μL/well) were added to the plate and incubated for 30 min. Intracellular Ca^2+ levels were subsequently assayed using a Fluorometric Imaging Plate Reader (FLIPR™ instrument, Molecular Devices, CA) to simultaneously monitor Fluo-3 fluorescence in all wells (λexcitation=488 nm, λemission=540 nm) during challenge with agonist (capsaicin). The IC50 values were determined. […] The contents of the wells were mixed 3 times (40 μL mix volume) immediately after the additions were made. Concentration-dependence of block was determined by exposing each well of cells in duplicate rows of a 96-well plate to a serial dilution of test compound. The concentration series usually started at 10 μM with a three-fold serial decrement in concentration. The magnitude of the capsaicin response was determined by measuring the change in fluo3 fluorescence before and 100 seconds after the addition of the agonist. Data were analyzed using a non-linear regression program (Origin; OriginLab, MA).
(§2) IC50 values shown are the average (mean) of the results obtained. […] Compounds were tested as in the free base, trifluoroacetic acid salt, or hydrochloride salt form.

rat TRPV1 = target: T2, rat TRPV1 (Rattus norvegicus, UniProt O35433); assay: Block of capsaicin-induced Ca2+ influx, rat assay (rTRPV1/HEK293, FLIPR); assay type: cell-based; settings: HEK293 cells transfected with rat TRPV1; capsaicin challenge; mean; > value = solubility limit in assay medium; read-out: Rat IC50
T2 construct: expressed in transfected cells; host or cells: HEK293
T2 sequence (O35433 whole entry): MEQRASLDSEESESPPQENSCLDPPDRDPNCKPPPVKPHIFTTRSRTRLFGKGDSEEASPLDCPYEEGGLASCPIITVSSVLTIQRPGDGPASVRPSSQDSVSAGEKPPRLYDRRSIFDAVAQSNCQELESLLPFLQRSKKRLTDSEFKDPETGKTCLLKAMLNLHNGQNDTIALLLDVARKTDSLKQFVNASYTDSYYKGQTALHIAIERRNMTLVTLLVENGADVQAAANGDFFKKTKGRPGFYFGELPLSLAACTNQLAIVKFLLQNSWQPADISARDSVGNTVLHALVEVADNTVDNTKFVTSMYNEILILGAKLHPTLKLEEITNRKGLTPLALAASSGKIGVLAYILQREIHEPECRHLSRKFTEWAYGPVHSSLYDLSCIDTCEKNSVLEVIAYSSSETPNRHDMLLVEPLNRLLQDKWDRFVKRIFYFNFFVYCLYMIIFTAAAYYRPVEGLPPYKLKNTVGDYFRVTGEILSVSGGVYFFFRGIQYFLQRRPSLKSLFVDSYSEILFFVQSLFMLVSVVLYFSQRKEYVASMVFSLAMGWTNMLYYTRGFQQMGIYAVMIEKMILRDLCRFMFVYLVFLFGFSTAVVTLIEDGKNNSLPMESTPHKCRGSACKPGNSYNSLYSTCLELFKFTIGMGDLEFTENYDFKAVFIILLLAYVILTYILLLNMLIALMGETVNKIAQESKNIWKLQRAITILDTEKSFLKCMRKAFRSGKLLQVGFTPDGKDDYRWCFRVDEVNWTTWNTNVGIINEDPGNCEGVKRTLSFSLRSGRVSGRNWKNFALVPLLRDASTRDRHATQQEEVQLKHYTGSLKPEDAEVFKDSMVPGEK
Description: as §1
This assay was performed similarly to the human assay described above, but using HEK293 cells transfected with rat TRPV1 (rTRPV1/HEK293).
as §2

IC50 (human TRPV1) | IC50 (rat TRPV1) | Compound
336 nM | 118 nM | FC(F)(F)c1ccc(Nc2ncnc3sc(Cc4cccc(Cl)c4)nc23)cn1 [Example 53, 2-(3-Chlorobenzyl)-N-[6-(trifluoromethyl)pyridin-3-yl][1,3]thiazolo[5,4-d]pyrimidin-7-amine]
252 nM | 88 nM | FC(F)(F)c1ccc(Nc2ncnc3sc(Cc4cccc(Cl)c4)nc23)cc1 [Example 54, 2-(3-Chlorobenzyl)-N-[4-(trifluoromethyl)phenyl][1,3]thiazolo[5,4-d]pyrimidin-7-amine]
3440 nM | 2860 nM | Cc1cccc(C)c1Cc1nc2c(Nc3ccccc3)ncnc2s1 [Example 55, 2-(2,6-Dimethylbenzyl)-N-phenyl[1,3]thiazolo[5,4-d]pyrimidin-7-amine]
714 nM | 475 nM | Cc1cccc(C)c1Cc1nc2c(Nc3ccc(Br)cc3)ncnc2s1 [Example 56, N-(4-Bromophenyl)-2-(2,6-dimethylbenzyl)[1,3]thiazolo[5,4-d]pyrimidin-7-amine]
252 nM | 51 nM | Cc1cccc(C)c1Cc1nc2c(Nc3ccc(C(C)(C)C)cc3)ncnc2s1 [Example 57, N-(4-tert-Butylphenyl)-2-(2,6-dimethylbenzyl)[1,3]thiazolo[5,4-d]pyrimidin-7-amine]
75 nM | 82 nM | Cc1cccc(C)c1Cc1nc2c(Nc3ccc(C(F)(F)F)cc3)ncnc2s1 [Example 58, 2-(2,6-Dimethylbenzyl)-N-[4-(trifluoromethyl)phenyl][1,3]thiazolo[5,4-d]pyrimidin-7-amine]
139 nM | 183 nM | Cc1cccc(C)c1Cc1nc2c(Nc3ccc(C(F)(F)F)nc3)ncnc2s1 [Example 59, 2-(2,6-Dimethylbenzyl)-N-[6-(trifluoromethyl)pyridin-3-yl][1,3]thiazolo[5,4-d]pyrimidin-7-amine]
209 nM | 204 nM | Cc1cccc(C)c1Cc1nc2c(Nc3ccc(S(=O)(=O)N4CCOCC4)cc3)ncnc2s1 [Example 60, 2-(2,6-Dimethylbenzyl)-N-[4-(morpholin-4-ylsulfonyl)phenyl][1,3]thiazolo[5,4-d]pyrimidin-7-amine]
496 nM | 253 nM | Cc1cccc(C)c1Cc1nc2c(Nc3ccc(S(C)(=O)=O)cc3)ncnc2s1 [Example 61, 2-(2,6-Dimethylbenzyl)-N-[4-(methylsulfonyl)phenyl][1,3]thiazolo[5,4-d]pyrimidin-7-amine]
72 nM | 32 nM | CS(=O)(=O)c1nc(Nc2ccc(C(F)(F)F)cc2)c2nc(Cc3c(Cl)cccc3Cl)sc2n1 [Example 62, [2-(2,6-Dichloro-benzyl)-5-methanesulfonyl-thiazolo[5,4-d]pyrimidin-7-yl]-(4-trifluoromethyl-phenyl)-amine]
> 6670 nM | 3560 nM | FC(F)(F)c1ccc(Nc2nc(N3CCOCC3)nc3sc(Cc4c(Cl)cccc4Cl)nc23)cc1 [Example 63, [2-(2,6-Dichloro-benzyl)-5-morpholin-4-yl-thiazolo[5,4-d]pyrimidin-7-yl]-(4-trifluoromethyl-phenyl)-amine]
466 nM | 323 nM | CC1CCCN1c1nc(Nc2ccc(C(F)(F)F)cc2)c2nc(Cc3c(Cl)cccc3Cl)sc2n1 (stereo not shown) [Example 64, [2-(2,6-Dichloro-benzyl)-5-(2-methyl-pyrrolidin-1-yl)-thiazolo[5,4-d]pyrimidin-7-yl]-(4-trifluoromethyl-phenyl)-amine]
461 nM | 266 nM | FC(F)(F)c1ccc(Nc2nc(NCCN3CCOCC3)nc3sc(Cc4c(Cl)cccc4Cl)nc23)cc1 [Example 65, 2-(2,6-Dichloro-benzyl)-N^5-(2-morpholin-4-yl-ethyl)-N^7-(4-trifluoromethyl-phenyl)-thiazolo[5,4-d]pyrimidine-5,7-diamine trifluoroacetic acid salt]
249 nM | 103 nM | FC(F)(F)c1ccc(Nc2nc(NCC3CC3)nc3sc(Cc4c(Cl)cccc4Cl)nc23)cc1 [Example 66, N^5-Cyclopropylmethyl-2-(2,6-dichloro-benzyl)-N^7-(4-trifluoromethyl-phenyl)-thiazolo[5,4-d]pyrimidine-5,7-diamine]
